Assay results published in the supplement of paper PMC8149375.
“And” between values parts separate entries of the source, which are not always exact repeats. Equal values may be shown once.

Key:
Details in all cases: treatment: drug alone; 5 days
ACHN [1] = assay: AUC of dose-response viability curve, drug alone (arbitrary (AUC of normalised viability)); higher = less growth inhibition
Experimental: (§1)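 Primary HTS: 8 RCC cell lines treated with 8 doses (up to 10 uM) of each library drug alone for 5 days; viability read by CellTiter-Glo and normalised to DMSO. GI50 was fitted with XLfit (4-parameter), AUC is the area under the dose-response curve, and minimum viability is the lowest fraction of DMSO viability across doses.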

SN12C [2] = assay: as above
Experimental: as §1

UO-31 [3] = assay: as above
Experimental: as §1

CAKI-1 [4] = assay: as above
Experimental: as §1

769-P [5] = assay: as above
Experimental: as §1

A498 [6] = assay: as above
Experimental: as §1

786-O [7] = assay: as above
Experimental: as §1

TK-10 [8] = assay: as above
Experimental: as §1

ACHN [9] = assay: GI50, drug alone; higher = less potent
Experimental: as §1

SN12C [10] = assay: GI50, drug alone; higher = less potent
Experimental: as §1

UO-31 [11] = assay: GI50, drug alone; higher = less potent
Experimental: as §1

CAKI-1 [12] = assay: GI50, drug alone; higher = less potent
Experimental: as §1

769-P [13] = assay: GI50, drug alone; higher = less potent
Experimental: as §1

A498 [14] = assay: GI50, drug alone; higher = less potent
Experimental: as §1

786-O [15] = assay: GI50, drug alone; higher = less potent
Experimental: as §1

TK-10 [16] = assay: GI50, drug alone; higher = less potent
Experimental: as §1

ACHN [17] = assay: minimum viability across doses, drug alone, relative to DMSO (fraction); higher = less growth inhibition
Experimental: as §1

SN12C [18] = assay: as above
Experimental: as §1

UO-31 [19] = assay: as above
Experimental: as §1

CAKI-1 [20] = assay: as above
Experimental: as §1

769-P [21] = assay: as above
Experimental: as §1

A498 [22] = assay: as above
Experimental: as §1

786-O [23] = assay: as above
Experimental: as §1

TK-10 [24] = assay: as above
Experimental: as §1

| Structure (SMILES) | GI50, drug alone (ACHN [9]) | GI50, drug alone (786-O [15]) | AUC of dose-response viability curve (ACHN [1]) | AUC of dose-response viability curve (SN12C [2]) | AUC of dose-response viability curve (UO-31 [3]) | AUC of dose-response viability curve (CAKI-1 [4]) | AUC of dose-response viability curve (769-P [5]) | AUC of dose-response viability curve (A498 [6]) | AUC of dose-response viability curve (786-O [7]) | AUC of dose-response viability curve (TK-10 [8]) | GI50, drug alone (SN12C [10]) | GI50, drug alone (UO-31 [11]) | GI50, drug alone (CAKI-1 [12]) | GI50, drug alone (769-P [13]) | GI50, drug alone (A498 [14]) | GI50, drug alone (TK-10 [16]) | minimum viability across doses (ACHN [17]) | minimum viability across doses (SN12C [18]) | minimum viability across doses (UO-31 [19]) | minimum viability across doses (CAKI-1 [20]) | minimum viability across doses (769-P [21]) | minimum viability across doses (A498 [22]) | minimum viability across doses (786-O [23]) | minimum viability across doses (TK-10 [24]) |
| --- | --- | --- | --- | --- | --- | --- | --- | --- | --- | --- | --- | --- | --- | --- | --- | --- | --- | --- | --- | --- | --- | --- | --- | --- |
| COc1cc2ncnc(Nc3ccc(F)c(Cl)c3)c2cc1NC(=O)/C=C/CN1CCCCC1 | 50.8 nM | 24.3 nM | 1.4 | 2.09 | 2.7 | 2.17 | 1.85 | 3.2 | 1.39 | 1.7 | 1360 nM | 2820 nM | 1300 nM | 210 nM | 3000 nM | 146 nM | 0.00434 | 0.00743 | 0.0173 | 0.00809 | 0.0108 | 0.0166 | 0.0062 | 0.0112 |
| COc1cc2c(Oc3ccc(NC(=O)C4(C(=O)Nc5ccc(F)cc5)CC4)cc3F)ccnc2cc1OCCCN1CCOCC1 | 1140 nM | 1320 nM | 2.6 | 2.34 | 3.04 | 2.12 | 2.75 | 3.15 | 2.39 | 2.37 | 1200 nM | 2910 nM | 575 nM | 2910 nM | 3260 nM | 1070 nM | 0.00485 | 0.0104 | 0.0119 | 0.00629 | 0.0122 | 0.0481 | 0.00765 | 0.00697 |
| COCC(=O)NC/C=C/c1ccc2ncnc(Nc3ccc(Oc4ccc(C)nc4)c(C)c3)c2c1 | > 10000 nM | > 10000 nM | 3.39 | 3.1 | 5.09 | 3.51 | 3.37 | 4.6 | 2.92 | 3.07 | > 10000 nM | > 10000 nM | > 10000 nM | > 10000 nM | > 10000 nM | > 10000 nM | 0.61 | 0.739 | 1.11 | 0.937 | 0.878 | 1.07 | 0.717 | 0.661 |
| CO[C@@H](C(=O)N1Cc2[nH]nc(NC(=O)c3ccc(N4CCN(C)CC4)cc3)c2C1)c1ccccc1 | 1300 nM and 603 nM | 227 nM and 213 nM | 2.19 and 2.18 | 2.38 and 2.35 | 3.34 and 3.7 | 2.45 and 2.51 | 3.09 and 3.4 | 3.26 and 3.77 | 1.52 and 1.67 | 2.6 and 2.61 | 1190 nM and 929 nM | > 10000 nM | 1110 nM and 960 nM | 8850 nM and 8390 nM | 8180 nM and > 10000 nM | 2640 nM and 1850 nM | 0.176 and 0.142 | 0.174 and 0.144 | 0.7 and 0.698 | 0.139 and 0.0977 | 0.463 and 0.473 | 0.516 and 0.594 | 0.00938 and 0.00426 | 0.174 and 0.139 |
| COc1ncc(-c2ccc3nccc(-c4ccnnc4)c3c2)cc1NS(=O)(=O)c1ccc(F)cc1F | 63.1 nM | 29.6 nM | 1.46 | 1.49 | 1.49 | 1.08 | 1.4 | 2.32 | 1.11 | 1.23 | 76.6 nM | 92 nM | 28.9 nM | 84.2 nM | 242 nM | 36.5 nM | 0.0976 | 0.0986 | 0.00994 | 0.0314 | 0.0336 | 0.283 | 0.00239 | 0.0455 |
| CC(C)(C)c1nc(-c2cccc(NS(=O)(=O)c3c(F)cccc3F)c2F)c(-c2ccnc(N)n2)s1 | 381 nM | 3870 nM | 2.19 | 3.69 | 4.68 | 2.67 | 3.52 | 4.27 | 2.47 | 2.54 | > 10000 nM | > 10000 nM | 567 nM | > 10000 nM | > 10000 nM | 5140 nM | 0.115 | 0.942 | 0.75 | 0.163 | 0.842 | 0.91 | 0.463 | 0.447 |

More lines, main results first:

| GI50, drug alone (ACHN [9]) | GI50, drug alone (786-O [15]) | Structure (SMILES) | AUC of dose-response viability curve (ACHN [1]) | AUC of dose-response viability curve (SN12C [2]) | AUC of dose-response viability curve (UO-31 [3]) | AUC of dose-response viability curve (CAKI-1 [4]) | AUC of dose-response viability curve (769-P [5]) | AUC of dose-response viability curve (A498 [6]) | AUC of dose-response viability curve (786-O [7]) | AUC of dose-response viability curve (TK-10 [8]) | GI50, drug alone (SN12C [10]) | GI50, drug alone (UO-31 [11]) | GI50, drug alone (CAKI-1 [12]) | GI50, drug alone (769-P [13]) | GI50, drug alone (A498 [14]) | GI50, drug alone (TK-10 [16]) | minimum viability across doses (ACHN [17]) | minimum viability across doses (SN12C [18]) | minimum viability across doses (UO-31 [19]) | minimum viability across doses (CAKI-1 [20]) | minimum viability across doses (769-P [21]) | minimum viability across doses (A498 [22]) | minimum viability across doses (786-O [23]) | minimum viability across doses (TK-10 [24]) |
| --- | --- | --- | --- | --- | --- | --- | --- | --- | --- | --- | --- | --- | --- | --- | --- | --- | --- | --- | --- | --- | --- | --- | --- | --- |
| 4030 nM | 1840 nM | C[C@@H](Oc1cc(-c2cnn(C3CCNCC3)c2)cnc1N)c1c(Cl)ccc(F)c1Cl | 3.07 | 2.68 | 3.1 | 3.06 | 3.14 | 3.48 | 2.67 | 3.23 | 2430 nM | 4170 nM | 4010 nM | 6060 nM | 9410 nM | 5340 nM | 0.225 | 0.154 | 0.169 | 0.0408 | 0.117 | 0.346 | 0.0211 | 0.239 |
| 1090 nM | 450 nM | O=C1NC(=O)/C(=C/c2ccc3nccc(-c4ccncc4)c3c2)S1 | 2.48 | 2.4 | 2.45 | 2.21 | 2.87 | 2.97 | 2.19 | 2.63 | 1160 nM | 498 nM | 412 nM | 6260 nM | 4570 nM | 2290 nM | 0.219 | 0.26 | 0.0334 | 0.125 | 0.43 | 0.341 | 0.216 | 0.467 |
| 215 nM | 58.7 nM | CC(=O)Nc1cccc(-n2c(=O)n(C3CC3)c(=O)c3c(Nc4ccc(I)cc4F)n(C)c(=O)c(C)c32)c1 | 1.81 | 2.39 | 3.28 | 1.93 | 2.26 | 3.29 | 1.76 | 1.67 | 1620 nM | 4610 nM | 228 nM | 567 nM | > 10000 nM | 118 nM | 0.312 | 0.405 | 0.382 | 0.201 | 0.257 | 0.735 | 0.332 | 0.289 |
